# Test results reported in patent US11925643B2, “Toll-like receptor 4 (TLR4) inhibitors and use thereof” (MOR RESEARCH APPLICATIONS LTD., priority 2018, dated 2024).
# Residues, ends and D or L forms follow the SMILES beside them.
# Columns and labels:
# [1] = target: T1, TLR4 (Homo sapiens, UniProt O00206); experiment: FACS analysis of TLR4 expressed by macrophages exposed to LPS; format: cell-based; details: 10 μM
# T1 construct: FACS analysis to test the expression of TLR4 protein by macrophages under LPS treatment; endogenous in cells; host or cells: human peripheral-blood monocytes differentiated into macrophages with M-CSF
# Procedure: Flow cytometry is an analytical cell-biology technique that utilizes light to count and profile cells in a heterogenous fluid mixture. Flow cytometry analysis was used to evaluate binding of antibodies to TLR4 presenting cells. In this assay, an anti-TLR4 antibody was added to a monocytes suspension and cells which bound the antibody were visualized by a fluorescently labeled secondary antibody that bound to the anti-TLR4 antibody (Ab). Accordingly, samples were first “labeled” with the anti-TLR4 antibody, then incubated with Fluor® 488 conjugated to a secondary Ab for TLR4 (CD284) positive cells visualization.
# In order to confirm the specificity of binding, and further in order to correct for non-specific or background staining, isotypes control mouse IgGs were added to cell suspensions at the same concentration as the anti-TLR4 Abs. To deduct the non-specific or background staining from the positive staining due to direct Ab binding to the antigen, the level of background staining was assessed by the use of the same fluorochrome as that used for staining the anti-TLR4 Ab.
# Peripheral blood (30 ml) was obtained for the isolation of monocytes. Monocytes were purified by density gradient centrifugation as described above, and/or by adherence to plastic in RPMI 1640 medium supplemented with 10% fetal bovine serum (FBS) and antibiotics. Peripheral blood mononuclear cells (PBMCs) (10^6 cells/ml) were first seeded into 24-well plates (0.5 ml per well), after 2 hours, non-adherent cells were removed by several washes with warm PBS.
# Monocytes freshly isolated either by density gradient centrifugation by adherence differentiated into macrophages in complete RPMI 1640 medium supplemented with human recombinant macrophage colony stimulating factor (100 ng/ml) for 6 days. To confirm macrophage cell lineage, direct immunostaining was performed with an antibody directed against CD11b/mac1 (Biolegend® Inc., San Diego, Calif., USA). Eighty percent (80%) of positive staining was observed by flow cytometry analysis. The proportion of TLR4 in this separated cell fraction was examined by FACS analysis using, as isotype control, mouse IgG2a IsoControl (eBioscience™ #53-4724-80), and mouse anti-human CD284 Alexa Fluor® 488 Clone FITA125 secondary Ab (Isotype IgG2a. eBioscience™ #53-9917-41), which recognizes the human TLR4 (also known as CD284) cell surface antigen. Cells were analyzed in a BC Gallios Flow Cytometer (Beckman Coulter, Indianapolis Ind., USA) and were initially gated on the basis of forward and side scatter characteristics. Kaluza Software was used to analyze the results. Results are expressed as mean fluorescence intensity (MFI) and also as normalized to control. […]
# [2] = test system: IL-1β mRNA; experiment: IL-1β mRNA level by RT-qPCR in hypoxic cardiomyocytes; format: cell-based; details: hypoxic conditions
# Procedure: Real-time RT-PCR experiments were performed in duplicates on an ABI 7900 instrument (Applied Biosystems™) using Taqman™ Master Mix (Applied Biosystems™). The average threshold cycles (Ct) of the duplicates were used to calculate the relative expression levels of the following genes: TLR4 (Applied Biosystems™ assay primer ID: Mm00569848_m1 Tlr4), TLR2 (assay primer ID: Mm01769726_m1 Tlr2), TNF-α (assay primer ID: Mm00443260_g1 Tnf) and IL-1β (assay primer ID: Mm00434228_m1 II1b) in vitro and in vivo following hypoxia or ischemia, respectively. The reference gene was TBP and the primer used was derived from mouse TATA-box binding protein (Applied Biosystems™ assay primer ID: Mm00446973_m1 Tbp). Amounts of TLR2, TLR4, TNF-α and IL-1β mRNAs in each sample were calculated relative to TBP mRNA, based on the corresponding Cts, as Relative Quantity (RQ) values, and normalized taking as 1 a randomly selected sample of the control group (TBP mRNA). […]
# Decoy peptides represented by compounds PM1-PM10 were tested in vitro for their ability to decrease the level of CK and LDH released by stressed cardiomyocytes following exposure to LPS or hypoxic stimulation, and further evaluated for their ability to affect the level of IL-1β and TLR4 mRNA, and expression of IκB and TLR4 proteins, according to the protocols described in Materials and Methods and in Example 5 herein above.
# T1 sequence (O00206 24-839): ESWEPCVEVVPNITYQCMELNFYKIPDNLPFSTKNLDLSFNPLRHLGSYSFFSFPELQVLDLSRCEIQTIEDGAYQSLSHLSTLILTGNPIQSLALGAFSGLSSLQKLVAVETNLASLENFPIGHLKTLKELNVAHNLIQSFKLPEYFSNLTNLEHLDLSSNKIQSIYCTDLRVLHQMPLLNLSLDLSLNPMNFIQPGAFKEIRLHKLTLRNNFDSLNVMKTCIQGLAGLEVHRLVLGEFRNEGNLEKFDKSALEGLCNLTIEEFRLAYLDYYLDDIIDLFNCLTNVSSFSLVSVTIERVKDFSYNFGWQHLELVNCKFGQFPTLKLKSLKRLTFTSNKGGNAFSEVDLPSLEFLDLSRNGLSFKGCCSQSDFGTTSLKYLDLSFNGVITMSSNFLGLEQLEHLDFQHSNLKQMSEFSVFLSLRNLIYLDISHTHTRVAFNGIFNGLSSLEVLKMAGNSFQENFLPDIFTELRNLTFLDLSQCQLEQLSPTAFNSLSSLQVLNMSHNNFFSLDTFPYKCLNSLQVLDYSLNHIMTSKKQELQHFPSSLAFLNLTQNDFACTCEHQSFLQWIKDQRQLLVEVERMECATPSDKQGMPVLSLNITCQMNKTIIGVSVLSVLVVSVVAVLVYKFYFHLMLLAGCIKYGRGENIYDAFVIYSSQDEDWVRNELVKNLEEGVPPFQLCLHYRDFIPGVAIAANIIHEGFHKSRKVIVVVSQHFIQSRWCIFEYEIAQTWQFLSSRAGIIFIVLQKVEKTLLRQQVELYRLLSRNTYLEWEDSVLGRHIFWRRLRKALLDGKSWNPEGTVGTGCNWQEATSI
Structure (SMILES),"TLR4 expression level ([1]; 30 min before LPS (100 ng/ml or 20 μg/ml), 4 hours)","lowering the expression of TLR4 in the presence of LPS, compared with SEQ ID NO: 25 ([1]; low and high LPS)",inhibition of IL-1β mRNA production [2]
"CC[C@H](C)[C@H](NC(C)=O)C(=O)N[C@H](C(=O)N[C@@H](Cc1ccccc1)C(=O)N[C@@H](C)C(N)=O)C(C)C [SEQ ID NO:1, (2S,3S)-2-acetamido-N-((S)-1-(((S)-1-(((S)-1-amino-1-oxopropan-2-yl)amino)-1-oxo-3-phenylpropan-2-yl)amino)-3-methyl-1-oxobutan-2-yl)-3-methylpentanamide] (Ac-IVFA-NH2)",toward baseline levels,more effective,
"CCCCCCCCNc1nc(=O)n(Cc2ccccc2)cc1C [PM6, 1-benzyl-5-methyl-4-(octylamino)pyrimidin-2(1H)-one]",,,~12 fold
